Measured values: US9783509B2, “Six-membered C-N-linked aryl sulfide derivatives and aryl sulfoxide derivatives as pest conrol agents” (BAYER CROPSCIENCE AKTIENGESELLSCHAFT, priority 2013, dated 2017)

How the values were obtained:
[1] = log P by reversed-phase HPLC analogously to OECD Guideline 117; type: physicochemical; settings: for LogP[a]: [a] acidic range, pH 2.7, formic acid (or trifluoroacetic acid)/acetonitrile; for LogP[b]: [b] neutral range, pH 7.8, ammonium hydrogencarbonate/acetonitrile
Method: The log P values were determined analogously to OECD Guideline 117 (EC Directive 92/69/EEC) by HPLC (high-performance liquid chromatography) using reversed-phase columns (C 18), by the following methods:
[a] LC-MS determination in the acidic range is effected at pH 2.7 with 0.1% aqueous formic acid and acetonitrile (containing 0.1% formic acid) as eluents with a linear gradient from 10% acetonitrile to 95% acetonitrile; or with 0.025% aqueous trifluoroacetic acid and acetonitrile (containing 0.025% trifluoroacetic acid) as eluents with a linear gradient from 50% acetonitrile to 80% acetonitrile.
[b] LC-MS determination in the neutral range is effected at pH 7.8 with 0.001 molar aqueous ammonium hydrogencarbonate solution and acetonitrile as eluents; linear gradient from 10% acetonitrile to 95% acetonitrile.
Calibration is effected with solutions of a homologous series of unbranched alkan-2-ones (having 3 to 16 carbon atoms) with known log P values (log P values determined on the basis of the retention times by linear interpolation between two successive alkanones).

[2] = system: greenhouse red spider mite (Tetranychus urticae); test: Tetranychus urticae spray test, OP-resistant (bean leaf discs); type: in vivo; settings: after 6 days
Method: Tetranychus urticae—Spray Test, OP-Resistant
Solvent: 78.0 parts by weight of acetone • • 1.5 parts by weight of dimethylformamide
Emulsifier: alkylaryl polyglycol ether
To produce an appropriate active ingredient formulation, 1 part by weight of active ingredient is dissolved using the specified parts by weight of solvent and made up with water containing an emulsifier concentration of 1000 ppm until the desired concentration is attained. To produce further test concentrations, the preparation is diluted with emulsifier-containing water.
Discs of bean leaves (Phaseolus vulgaris) infested by all stages of the greenhouse red spider mite (Tetranychus urticae) are sprayed with an active ingredient formulation of the desired concentration.
After 6 days, the efficacy in % is determined. 100% means that all the spider mites have been killed; 0% means that none of the spider mites have been killed.

[3] = system: southern root-knot nematode (Meloidogyne incognita); test: Meloidogyne incognita test (sand, lettuce, acetone solvent, 14 days); type: in vivo; settings: application rate 20 ppm, after 14 days
Method: Meloidogyne incognita Test
Solvent: 125.0 parts by weight of acetone
To produce an appropriate active ingredient formulation, 1 part by weight of active ingredient is mixed with the stated amount of solvent and the concentrate is diluted with water to the desired concentration.
Vessels are filled with sand, active ingredient solution, an egg/larvae suspension of the southern root-knot nematode (Meloidogyne incognita) and lettuce seeds. The lettuce seeds germinate and the plants develop. The galls develop on the roots
After 14 days, the nematicidal efficacy in % is determined by the formation of galls. 100% means that no galls were found; 0% means that the number of galls on the treated plants corresponds to the untreated control.

Row | SMILES | LogP[a] [1] | LogP[b] [1] | efficacy (spider mites killed) ([2]; application rate 500 g/ha) [%] | nematicidal efficacy (formation of galls) [3] [%] | efficacy (spider mites killed) ([2]; application rate 100 g/ha) [%]
1 | Cc1cc(F)c(-n2ccc(=O)n(CC#N)c2=O)cc1SCC(F)(F)F [compound 73] | 2.62 | 2.65 | 90 | 100 | –
2 | Cc1cc(F)c(-n2ccc(=O)n(CC3CC3)c2=O)cc1SCC(F)(F)F [compound 74] | 3.24 | 3.38 | 90 | 100 | –
3 | Cc1cc(F)c(-n2ccc(=O)n(C(C)C)c2=O)cc1SCC(F)(F)F [compound 75] | 3.21 | 3.35 | – | 100 | 90
4 | Cc1cc(F)c(-n2ccc(=O)n(Cc3ccc(F)cc3)c2=O)cc1SCC(F)(F)F [compound 76] | 3.56 | 3.74 | 90 | 100 | –
5 | C=CCn1c(=O)ccn(-c2cc(SCC(F)(F)F)c(C)cc2F)c1=O [compound 77] | 3.08 | 3.06 | 90 | 100 | –
6 | CCCn1c(=O)ccn(-c2cc(SCC(F)(F)F)c(C)cc2F)c1=O [compound 78] | 3.13 | 3.27 | 90 | 100 | –
7 | Cc1ccc(-n2ccc(=O)n(CC(F)(F)F)c2=O)cc1SCC(F)(F)F [compound 84] | 3.16 | 3.15 | 100 | 100 | –
8 | Cc1ccc(-n2ccc(=O)n(CC#N)c2=O)cc1SCC(F)(F)F [compound 85] | 2.55 | 2.62 | 100 | 90 | –
9 | Cc1ccc(-n2ccc(=O)n(CC3CC3)c2=O)cc1SCC(F)(F)F [compound 86] | 3.21 | 3.31 | 100 | 90 | –
10 | Cc1ccc(-n2ccc(=O)n(C(C)C)c2=O)cc1SCC(F)(F)F [compound 87] | 3.18 | 3.25 | 100 | 90 | –
11 | Cc1ccc(-n2ccc(=O)n(CC(F)(F)F)c2=O)cc1[S+]([O-])CC(F)(F)F (stereo not shown) [compound 90] | 2.18 | 2.21 | 100 | 100 | –
12 | Cc1cc(C)c(-n2ccc(=O)n(C)c2=O)cc1SCC(F)(F)F [compound 92] | 2.66 | 2.72 | 90 | 90 | –
13 | Cc1cc(C)c([S+]([O-])CC(F)(F)F)cc1-n1ccc(=O)n(CC(F)(F)F)c1=O (stereo not shown) [compound 95] | 2.40 | 2.44 | 100 | 100 | –
14 | CCn1c(=O)ccn(-c2cc([S+]([O-])CC(F)(F)F)c(C)cc2C)c1=O (stereo not shown) [compound 97] | 1.96 | 1.99 | 100 | 90 | –
15 | CCn1c(=O)ccn(-c2ccc(C)c([S+]([O-])CC(F)(F)F)c2)c1=O (stereo not shown) [compound 98] | 1.77 | 1.77 | 100 | 100 | –
16 | Cc1ccc(-n2ccc(=O)n(CC#N)c2=O)cc1[S+]([O-])CC(F)(F)F (stereo not shown) [compound 100] | 1.63 | 1.62 | 90 | 100 | –
